Assay [1] relates to angiotensin II receptor. The assay can be described thus: Angiotensin II Receptor Binding Assay ([3H] angiotensin II binding inhibition). To be noted: [3H] angiotensin II ligand; 60 minutes, 25° C.; test concentration not given. On the procedure: In accordance with the procedure disclosed in Chiu, A. T. et al., Eur. J. Pharm., 157, 13(1981), a ligand marked with a radioisotope was reacted with an angiotensin II receptor and the reactant was filtered with a glass fiber to remove unreacted ligand. After washing the filter, the amount of the remaining isotope was measured to determine the binding activity of the ligand, as described below in detail.
Sprague-Dawley rats and Wistar rats of 250 to 350 g(from The Korea Research Institute of Chemical Technology) were tested and the test procedures were carried out at 4° C., unless otherwise specified. Adrenal gland was separated from the Sprague-Dawley rats(liver, in the case of Wistar rats) into cortex and medulla. The separated adrenal cortex and medulla were washed with a sucrose buffer solution (0.2M sucrose, 1 mM EDTA, 10 mM Tris, pH 7.2) and homogenized in the same buffer solution by using a Teflon pestle and a Brinkmann homogenizer. The homogenates were centrifuged at 3,000 Xg for 10 minutes to remove precipitates and further centrifuged at 12,000 Xg for 13 minutes. The final supernatants were centrifuged at 102,000 Xg for 1 hour to obtain precipitates, which were washed with a Tris buffer solution(50 mM Tris, 5 mM MgCl2, pH 7.2) and re-centrifuged at 102,000 Xg for 1 hour. The resulting precipitates were immediately processed at the following step or stored at -70° C.
The precipitates were suspended in a Tris buffer solution. The amount of protein was determined by using a Bio-Rad DC protein analyzing kit and the protein concentration was adjusted to the amounts of: 0.2 to 0.3 mg/ml(Sprague-Dawley rat: adrenal cortex), 1.5 to 2.0 mg/ml(Sprague-Dawleyrat: adrenal medulla), and 1.5 to 2.0 mg/ml(Wistar rat: liver). To the suspension, bovine serum albumin(BSA) was added to a concentration of 0.25 wt % and the resultant was immediately processed at the following step or stored at -70° C.
(ii) Measurement of angiotensin II receptor binding capacity 50 μl(based on ligand) of [^3 H] angiotensin II(NEN, NET-446) and 10 μl of each of the test compounds with various concentrations were added to the buffer solution(50 mM Irris(pH 7.2), 5 mM MgCl2, 0.25% BSA) to adjust the final volume to be 0.5 ml. 100 μl of the receptor suspension was added thereto and the resulting solution was reacted for 60 minutes while stirring in a water bath at 25° C. 3 ml of cold buffer solution for analysis was added to cease the reaction. The isotope which was bound to the receptor was isolated from the resultant by using Brandel Cell Harvester System with Whatman glass fiber GF/C. After washing the filter, the radioactivity of the filter was determined by using a liquid scintillation counter. Binding inhibition(%) of the test compound was calculated as follows:
Binding Inhibition(%)=[{(T--B)-(S--B)}/(T--B)]×100
wherein T is cpm of the reaction product untreated with the test compound, S is cpm of the reaction product treated with the test compound, and B is cpm of blank test.

Assay [2] deals with renal hypertensive rat. Kind of assay: Blood pressure lowering effect in renal hypertension (renal hypertensive rats, intravenous or oral). In kind it is in vivo, male Sprague-Dawley rats. The following applies: 3 mg, read-out: Maxium Blood Pressure Lowering Effect(%). The source says: To induce renal hypertension, left renal artery of 4 week-old male Sprague-Dawley rats(from The Korea Research Institute of Chemical Technology) was ligated. The rats were anesthetized with ether and the surgical region on the left abdomen of the rat was shaved, disinfected, and then incised about 1 cm vertically. The renal artery near abdominal aorta was isolated carefully from surrounding tissues and veins, and then ligated completely with a suture(4/0 sterile surgical silk). The muscular strata and skin of the surgical area were sutured with a suture(4/0 sterile surgical silk). The surgical region was disinfected to prevent infection and thereafter, 200 to 250 mg/Kg/day of cephazolin sodium was injected intramuscularly for 2 days. 6 to 8 days after the ligation, rats showing systolic pressure of more than 180 mmHg were selected for renal hypertension test. The blood pressure was determined by a tail-cuff method from the tail under unanesthetized condition(Gerold, M. et al., Arzneimittrel-Forsch, 18, 1285(1968)).
Each of the compounds to be tested was administered intravenously or orally into the renal hypertensive rat. The blood pressure of the rats was determined by direct method(Chiu, A. T. et al., J. Pharmacol. Exp. Ther. 250, 867(1989)) using a catheter. The rats were anesthetized with ketamine hydrochloride(125 mg/kg, i.p.) and a catheter was filled with saline and inserted into a carotid artery and carotid vein. The surgical area was sutured with a metal clip. The rats were relaxed at least 3 hours and the catheter in the carotid artery was adapted to an isotec pressure transducer to determine their blood pressure and heart rate with a physiograph(Linearcorder WR3310). After the blood pressure was stabilized, the test compound was administered intravenously or orally. For intravenous administration, the administered volume and washing volume were 1.0 ml/Kg and 0.2 ml, respectively. The blood pressure and heart rate were measured in regular intervals up to 24 hours after the administration of the test compound and compared with those measured after the administration of the control compound Losartan.
The test compound was dissolved in 0.05N KOH for intravenous administration and suspended in Tween 80 for oral administration.

Consider `CCc1nc2c(C)cc(C(OC)OC)nc2n1Cc1ccc(-c2ccccc2-c2nnn[nH]2)cc1` [Example 12, 2-ethyl-5-dimethoxymethyl-7-methyl-3-[2'-(1H-tetrazol-5-yl)-biphenyl-4-ylmethyl]-3H-imidazo[4,5-b]pyridine], for which the “Binding Inhibition(%)” value in assay [1] was 44.5%.
With `CCCCc1nc2cc(-c3ccc[n+]([O-])c3)c(C(OC)OC)nc2n1Cc1ccc(-c2ccccc2-c2nn[nH]n2)cc1` [Example 24, 2-butyl-5-dimethoxymethyl-6-(1-oxy-pyridin-3-yl)-3-[2'-(1H-tetrazol-5-yl)-biphenyl-4-ylmethyl]-3H-imidazo[4,5-b]pyridine], the “Binding Inhibition(%)” value in assay [1] amounted to 94.9%. In assay [2], the change in vivo at 3 mg was -18%.
The matching figures for `CCCCc1nc2cc(-c3ccccc3)c(C3OCCO3)nc2n1Cc1ccc(-c2ccccc2-c2nnn[nH]2)cc1` [Example 3, 2-butyl-5-(1,3-dioxolan-2-yl)-6-phenyl-3-[2'-(1H-tetrazol-5-yl)-biphenyl-4-ylmethyl]-3H-imidazo[4,5-b]pyridine]: 70.6% and -27%.
As to `CCCCc1nc2cc(-c3ccccc3)c(C(OCC)OCC)nc2n1Cc1ccc(-c2ccccc2-c2nnn[nH]2)cc1` [Example 2, 2-butyl-5-diethoxymethyl-6-phenyl-3-[2'-(1H-tetrazol-5-yl)-biphenyl-4-ylmethyl]-3H-imidazo[4,5-b]pyridine], the change in vivo at 3 mg in assay [2] was -45%.
With `CCCCc1nc2cc(-c3ccccc3OC)c(C(OC)OC)nc2n1Cc1ccc(-c2ccccc2-c2nn[nH]n2)cc1` [Example 20, 2-butyl-5-dimethoxymethyl-6-(2-methoxyphenyl-1-yl)-3-[2'-(1H-tetrazol-5-yl)-biphenyl-4-ylmethyl]-3H-imidazo[4,5-b]pyridine], the “Binding Inhibition(%)” value in assay [1] was 81.9%. In assay [2], the change in vivo at 3 mg was -25%.
The matching figures for `CCCCc1nc2cc(-c3ccc(CO)cc3)c(C(OC)OC)nc2n1Cc1ccc(-c2ccccc2-c2nn[nH]n2)cc1` [Example 18, 2-butyl-5-dimethoxymethyl-6-(4-hydroxymethylphenyl-1-yl)-3-[2'-(1H-tetrazol-5-yl)-biphenyl-4-ylmethyl]-3H-imidazo[4,5-b]pyridine]: 89.4% and -33%.
With `CCCCc1nc2cc(-c3ccc(C)cc3)c(C(OC)OC)nc2n1Cc1ccc(-c2ccccc2-c2nn[nH]n2)cc1` [Example 16, 2-butyl-5-dimethoxymethyl-6-(4-methylphenyl-1-yl)-3-[2'-(1H-tetrazol-5-yl)-biphenyl-4-ylmethyl]-3H-imidazo[4,5-b]pyridine], the “Binding Inhibition(%)” value in assay [1] amounted to 68.5%.
Regarding `CCCCc1nc2cc(-c3cccnc3)c(C(OC)OC)nc2n1Cc1ccc(-c2ccccc2-c2nnn[nH]2)cc1` [Example 22, 2-butyl-5-dimethoxymethyl-6-(pyridin-3-yl)-3-[2'-(1H-tetrazol-5-yl)-biphenyl-4-ylmethyl]-3H-imidazo[4,5-b]pyridine], the “Binding Inhibition(%)” value in assay [1] was found to be 94.8%. Moreover, the change in vivo at 3 mg in assay [2] is -38%.
`CCCCc1nc2cc(-c3ccccc3N)c(C(OC)OC)nc2n1Cc1ccc(-c2ccccc2-c2nn[nH]n2)cc1` [Example 26, 2-butyl-5-dimethoxymethyl-6-(2-aminophenyl-1-yl)-3-[2'-(1H-tetrazol-5-yl)-biphenyl-4-ylmethyl]-3H-imidazo[4,5-b]pyridine]: the “Binding Inhibition(%)” value in assay [1] was found to be 89.2%.
With `CCCCc1nc2cc(Cc3ccccc3)c(C(OC)OC)nc2n1Cc1ccc(-c2ccccc2-c2nnn[nH]2)cc1` [Example 27, 2-butyl-5-dimethoxymethyl-6-benzyl-3-[2'-(1H-tetrazol-5-yl)-biphenyl-4-ylmethyl]-3H-imidazo[4,5-b]pyridine], the “Binding Inhibition(%)” value in assay [1] came out at 87.8%.
Turning to `CCCCc1nc2cc(Br)c(C(OC)OC)nc2n1Cc1ccc(-c2ccccc2-c2nnn[nH]2)cc1` [Example 7, 2-butyl-5-dimethoxymethyl-6-bromo-3-[2'-(1H-tetrazol-5-yl)-biphenyl-4-ylmethyl]-3H-imidazo[4,5-b]pyridine], in assay [1], the “Binding Inhibition(%)” value was found to be 78.1%.
As for `CCCCc1nc2cc(CCc3ccccc3)c(C(OC)OC)nc2n1Cc1ccc(-c2ccccc2-c2nn[nH]n2)cc1` [Example 15, 2-butyl-5-dimethoxymethyl-6-(2-phenylethyl-1-yl)-3-[2'-(1H-tetrazol-5-yl)-biphenyl-4-ylmethyl]-3H-imidazo[4,5-b]pyridine], the “Binding Inhibition(%)” value in assay [1] is given as 82.0%. In addition, the change in vivo at 3 mg in assay [2] was -36%.
As for `CCCCc1nc2cc(-c3ccncc3)c(C(OC)OC)nc2n1Cc1ccc(-c2ccccc2-c2nnn[nH]2)cc1` [Example 23, 2-butyl-5-dimethoxymethyl-6-(pyridin-4-yl)-3-[2'-(1H-tetrazol-5-yl)-biphenyl-4-ylmethyl]-3H-imidazo[4,5-b]pyridine], the “Binding Inhibition(%)” value in assay [1] is given as 92.9%. For the same compound, the change in vivo at 3 mg in assay [2] is -33%.
With `CCCCc1nc2ccc(C(OC)OC)nc2n1Cc1ccc(-c2ccccc2-c2nnn[nH]2)cc1` [Example 10, 2-butyl-5-dimethoxymethyl-3-[2'-(1H-tetrazol-5-yl)-biphenyl-4-ylmethyl]-3H-imidazo[4,5-b]pyridine], the “Binding Inhibition(%)” value in assay [1] stood at 83.6%.
Same read-out and setting: to `CCCCc1nc2c(C)cc(C(OC)OC)nc2n1Cc1ccc(-c2ccccc2-c2nnn[nH]2)cc1` [Example 11, 2-butyl-5-dimethoxymethyl-7-methyl-3-[2'-(1H-tetrazol-5-yl)-biphenyl-4-ylmethyl]-3H-imidazo[4,5-b]pyridine] belongs 52.5%; to `CCCCc1nc2cc(-c3ccc(F)cc3)c(C(OC)OC)nc2n1Cc1ccc(-c2ccccc2-c2nn[nH]n2)cc1` [Example 9, 2-butyl-5-dimethoxymethyl-6-(4-fluorophenyl-1-yl)-3-[2'-(1H-tetrazol-5-yl)-biphenyl-4-ylmethyl]-3H-imidazo[4,5-b]pyridine], 45.2%.
On the same count and under the same terms, to `CCCCc1nc2cc(-c3ccccc3)c(C3SCCS3)nc2n1Cc1ccc(-c2ccccc2-c2nnn[nH]2)cc1` [Example 5, 2-butyl-5-(1,3-dithiolan-2-yl)-6-phenyl-3-[2'-(1H-tetrazol-5-yl)-biphenyl-4-ylmethyl]-3H-imidazo[4,5-b]pyridine] belongs 54.1%; to `CCCCc1nc2cc(-c3cccs3)c(C(OC)OC)nc2n1Cc1ccc(-c2ccccc2-c2nnn[nH]2)cc1` [Example 14, 2-butyl-5-dimethoxymethyl-6-(thiophen-2-yl)-3-[2'-(1H-tetrazol-5-yl)-biphenyl-4-ylmethyl]-3H-imidazo[4,5-b]pyridine], 72.0%.
The same measure, in the same setting: to `CCCCc1nc2cc(-c3ccc(COCc4ccccc4)cc3)c(C(OC)OC)nc2n1Cc1ccc(-c2ccccc2-c2nn[nH]n2)cc1` [Example 17, 2-butyl-5-dimethoxymethyl-6-[4-(benzyloxymethyl)-phenyl-1-yl]-3-[2'-(1H-tetrazol-5-yl)-biphenyl-4-ylmethyl]-3H-imidazo[4,5-b]pyridine] belongs 82.0%.

For the origin of these results see patent publication US5849753A, “Pyridyl imidazole derivatives and processes for the preparation thereof” (Korea Research Institute of Chemical Technology, priority 1994, dated 1998).
